# Laboratory results as given in ChEMBL document CHEMBL1212763, “Pharmacokinetics and safety of S/GSK1349572, a next-generation HIV integrase inhibitor, in healthy volunteers” (Antimicrob Agents Chemother, 2010).
# Legend:
# [1] = Apparent oral clearance in healthy human at 5 mg administered as single dose suspension; format: ADME, organism-based; conditions: in vivo
# [2] = Cmax in healthy human at 10 mg administered as single dose suspension; format: ADME, organism-based; parameters: dose 10 mg; conditions: in vivo
# Homo sapiens [3] = experiment: Toxicity in healthy human assessed as incidence of drug related incidence of somnolence at 50 mg administered as single dose suspension; format: organism-based; conditions: in vivo
# [4] = Drug level at 24 hrs in healthy human at 5 mg administered as single dose suspension; format: ADME, organism-based; conditions: in vivo, read-out: Drug uptake
# [5] = AUC (0-t) in healthy human at 100 mg administered as single dose suspension; format: ADME, organism-based; conditions: plasma
# [6] = AUC (0-t) in healthy human at 25 mg administered as single dose suspension; format: ADME, organism-based; conditions: plasma
# Homo sapiens [7] = experiment: Toxicity in healthy human assessed as incidence of drug related incidence of somnolence at 2 mg administered as single dose suspension; format: organism-based; conditions: in vivo
# [8] = Apparent oral clearance in healthy human at 50 mg administered as single dose suspension; format: ADME, organism-based; conditions: in vivo
# [9] = Half life in healthy human at 10 mg administered as single dose suspension; format: ADME, organism-based; conditions: in vivo
# [10] = AUC (0-infinity) in healthy human at 10 mg administered as single dose suspension; format: ADME, organism-based; parameters: dose 10 mg, time infinity; conditions: plasma
# [11] = Drug level in healthy human at 25 mg, qd for 10 days administered as suspension measured after last dose; format: ADME, organism-based; conditions: in vivo, read-out: Drug uptake
# [12] = AUC (0-t) in healthy human at 50 mg administered as single dose suspension; format: ADME, organism-based; conditions: plasma
# [13] = Cmax in healthy human at 50 mg administered as single dose suspension; format: ADME, organism-based; parameters: dose 50 mg; conditions: in vivo
# [14] = Half life in healthy human at 50 mg administered as single dose suspension; format: ADME, organism-based; conditions: in vivo
# [15] = AUC (0-infinity) in healthy human at 25 mg administered as single dose suspension; format: ADME, organism-based; parameters: dose 25 mg, time infinity; conditions: plasma
# [16] = AUC (0-tau) in healthy human at 10 mg, qd for 10 days administered as suspension measured after last dose; format: ADME, organism-based; conditions: plasma
# [17] = AUC (0-t) in healthy human at 2 mg administered as single dose suspension; format: ADME, organism-based; conditions: plasma
# Homo sapiens [18] = experiment: Toxicity in healthy human assessed as incidence of drug related incidence of pharyngolaryngeal pain at 25 mg, qd for 10 days administered as suspension measured after last dose; format: organism-based; conditions: in vivo, 240 h
# [19] = Drug level in healthy human at 10 mg, qd for 10 days administered as suspension measured after last dose; format: ADME, organism-based; conditions: in vivo, read-out: Drug uptake
# [20] = Cmax in healthy human at 2 mg administered as single dose suspension; format: ADME, organism-based; parameters: dose 2 mg; conditions: in vivo
# Homo sapiens [21] = experiment: Toxicity in healthy human assessed as incidence of adverse events at 2 to 100 mg administered as single dose suspension; format: organism-based; conditions: in vivo
# [22] = Cmax in healthy human at 25 mg, qd for 10 days administered as suspension measured after last dose; format: ADME, organism-based; parameters: dose 25 mg; conditions: in vivo
# [23] = Cmax in healthy human at 5 mg administered as single dose suspension; format: ADME, organism-based; parameters: dose 5 mg; conditions: in vivo
# [24] = AUC (0-tau) in healthy human at 25 mg, qd for 10 days administered as suspension measured after last dose; format: ADME, organism-based; conditions: plasma
# [25] = Cmax in healthy human at 10 mg, qd for 10 days administered as suspension measured after last dose; format: ADME, organism-based; parameters: dose 10 mg; conditions: in vivo
# [26] = Tmax in healthy human at 5 mg administered as single dose suspension; format: ADME, organism-based; conditions: in vivo
# [27] = Drug level at 24 hrs in healthy human at 25 mg administered as single dose suspension; format: ADME, organism-based; conditions: in vivo, read-out: Drug uptake
# Homo sapiens [28] = experiment: Toxicity in healthy human assessed as incidence of drug related incidence of somnolence at 100 mg administered as single dose suspension; format: organism-based; conditions: in vivo
# [29] = Tmax in healthy human at 10 mg, qd for 10 days administered as suspension measured after last dose; format: ADME, organism-based; conditions: in vivo
# [30] = Tmax in healthy human at 50 mg administered as single dose suspension; format: ADME, organism-based; conditions: in vivo
# [31] = Half life in healthy human at 25 mg administered as single dose suspension; format: ADME, organism-based; conditions: in vivo
# [32] = Cmax in healthy human at 100 mg administered as single dose suspension; format: ADME, organism-based; parameters: dose 100 mg; conditions: in vivo
# Homo sapiens [33] = experiment: Toxicity in healthy human assessed as incidence of drug related incidence of pruritis at 50 mg, qd for 10 days administered as suspension measured after last dose; format: organism-based; conditions: in vivo, 240 h
# Homo sapiens [34] = experiment: Toxicity in healthy human assessed as incidence of drug related incidence of pruritis at 25 mg, qd for 10 days administered as suspension measured after last dose; format: organism-based; conditions: in vivo, 240 h
# Homo sapiens [35] = experiment: Toxicity in healthy human assessed as incidence of drug related incidence of pruritis at 10 mg, qd for 10 days administered as suspension measured after last dose; format: organism-based; conditions: in vivo, 240 h
# Homo sapiens [36] = experiment: Toxicity in healthy human assessed as incidence of drug related incidence of somnolence at 10 mg administered as single dose suspension; format: organism-based; conditions: in vivo
# [37] = Apparent oral clearance in healthy human at 2 mg administered as single dose suspension; format: ADME, organism-based; conditions: in vivo
# [38] = Half life in healthy human at 2 mg administered as single dose suspension; format: ADME, organism-based; conditions: in vivo
structure (smiles),measurement,setting,value
C[C@@H]1CCO[C@H]2Cn3cc(C(=O)NCc4ccc(F)cc4F)c(=O)c([O-])c3C(=O)N12.[Na+] [DOLUTEGRAVIR SODIUM],CL/F,[1],9.33 mL/min
same,Cmax,[2],1230 ng/mL
same,Activity,Homo sapiens [3],33%
same,concentration at 24 h,[4],126 ng/mL
same,AUC(0-t),[5],131000 ng·h/mL
same,AUC(0-t),[6],34300 ng·h/mL
same,Activity,Homo sapiens [7],0%
same,CL/F,[8],11.3 mL/min
same,half-life,[9],12.7 h
same,AUC(0-inf),[10],14600 ng·h/mL
same,concentration at 240 h,[11],840 ng/mL
same,AUC(0-t),[12],70800 ng·h/mL
same,Cmax,[13],4560 ng/mL
same,half-life,[14],14.2 h
same,AUC(0-inf),[15],35100 ng·h/mL
same,AUC tau at 240 h,[16],16700 ng·h/mL
same,AUC(0-t),[17],2630 ng·h/mL
same,Activity,Homo sapiens [18],0%
same,concentration at 240 h,[19],350 ng/mL
same,Cmax,[20],231 ng/mL
same,Activity,Homo sapiens [21],Non-toxic
same,Cmax,[22],3090 ng/mL
same,Cmax,[23],661 ng/mL
same,AUC tau at 240 h,[24],38400 ng·h/mL
same,Cmax,[25],1470 ng/mL
same,Tmax,[26],0.5 h
same,concentration at 24 h,[27],469 ng/mL
same,Activity,Homo sapiens [28],0%
same,Tmax,[29],0.5 h
same,Tmax,[30],1.25 h
same,half-life,[31],12.7 h
same,Cmax,[32],8140 ng/mL
same,Activity,Homo sapiens [33],22%
same,Activity,Homo sapiens [34],0%
same,Activity,Homo sapiens [35],0%
same,Activity,Homo sapiens [36],0%
same,CL/F,[37],12 mL/min
same,half-life,[38],12.7 h
